Experimental data: patent US8568997B2, “Detection system and uses therefor” (Dimerix Bioscience Pty Ltd., priority 2006, dated 2013)
“Also recorded” adds a separate entry of the source.

How the values were obtained:
Type in all cases: cell-based
[1] = tested on: thyrotropin releasing hormone receptor (TRHR); experiment: eBRET/BRET beta-arrestin recruitment to TRHR/Rluc without IG3 (pcDNA3) in HEK293 cells
Method: eBRET measurements at 37 C were carried out on HEK293 cells transiently co-expressing TRHR/Rluc and barr2/Venus with either pcDNA3, orexin receptor 2 (OxR2), CXC chemokine receptor 2 (CXCR2), hemagglutin epitope-tagged melanocortin receptor 3 or 4 (HA-MC3R or HA-MC4R), or dopamine D2 receptor long form (D2LR) or short form (D2SR) following the treatment of each with their respective ligands.
Ligand treatments were either OxA or TRH only or both OxA and TRH combined. Phosphate-buffered saline (PBS) was used as a vehicle control.
Ligand treatments were either OxA or TRH only. Phosphate-buffered saline (PBS) was used as a vehicle control.
BRET measurements at 37 C were carried out on HEK293 cells transiently co-expressing TRHR/Rluc, barr2/Venus and pcDNA3 with increasing doses of TRH. Sigmoidal dose response curves were plotted using Prism (Graph Pad), either assuming a Hill slope of 1 or allowing for variable slope. The EC50 and Hill slope values for the variable slope curve are included in a table in the graph.
TRHR is IG1, Rluc is RC1, barr1 is IG2, EGFP is RC2 and OxR2 is IG3. The same amount of EGFP/barr1 (IG2-RC2) is transfected for each experiment.
Cells were seeded in 6-well plates at a density of approximately 630,000 cells/well (HEK293FT) or approximately 150,000 cells/well (COS-7) and maintained at 37° C., 5% CO2 in Complete Media (DMEM containing 0.3 mg/ml glutamine, 100 IU/ml penicillin and 100 μg/ml streptomycin (Gibco)) supplemented with 10% fetal calf serum (FCS; Gibco). Transient transfections were carried out 24 h after seeding using GeneJuice (Novagen) or Metafectene (Biontex) according to manufacturer instructions. 24 h post-transfection, cells were washed with PBS, detached using 0.05% trypsin/0.53 mM EDTA, resuspended in HEPES-buffered phenol red free Complete Media containing 5% FCS and added to a poly-L-lysine-coated white microplate (Nunc). 48 h post-transfection, eBRET assays were carried out following pre-incubation of cells with EnduRen™ (Promega) at a final concentration of 30-40 μM, at 37° C., 5% CO2 for 2 h. For original BRET studies, the HEPES-buffered phenol red free Complete Media was replaced with PBS and coelenterazine h (Molecular Probes) added to a final concentration of 5 μM immediately prior to commencing the assay. BRET measurements were taken at 37° C. using the Victor Light plate reader with Wallac 1420 software (Perkin-Elmer). Filtered light emissions were sequentially measured for 3-5 s in each of the ‘donor wavelength window’ (400-475 nm) and ‘acceptor wavelength window’ (>500 nm for EGFP or 520-540 nm for EYFP, Topaz (TYFP) or Venus). The BRET signal observed between interacting proteins is normalized by subtracting the background BRET ratio. This can be done in one of two ways (see Pfleger et al. (2006) Cell Signal 18, 1664-1670; Pfleger et al. (2006) Nat Protoc 1, 336-344): 1) the ratio of light emission through the ‘acceptor wavelength window’ over the 400-475 nm emission for a cell sample containing only the donor construct is subtracted from the same ratio for a sample containing the interacting acceptor and donor fusion proteins; 2) the ratio of light emission through the ‘acceptor wavelength window’ over the 400-475 nm emission for a cell sample treated with vehicle is subtracted from the same ratio for a second aliquot of the same cell sample treated with ligand. In the following examples, the first calculation will be used, unless the signal is described as the ligand-induced BRET ratio'.

OxR2 = molecular target: T1, OxR2 (Homo sapiens, UniProt O43614); experiment: BRET/eBRET beta-arrestin 2 recruitment to OxR2/Rluc (or Rluc8) without IG3 (pcDNA3); details: OxR2/Rluc8 + barr2/Venus + pcDNA3
T1 construct: expressed in transfected cells; host or cells: HEK293
T1 sequence (O43614 1-444): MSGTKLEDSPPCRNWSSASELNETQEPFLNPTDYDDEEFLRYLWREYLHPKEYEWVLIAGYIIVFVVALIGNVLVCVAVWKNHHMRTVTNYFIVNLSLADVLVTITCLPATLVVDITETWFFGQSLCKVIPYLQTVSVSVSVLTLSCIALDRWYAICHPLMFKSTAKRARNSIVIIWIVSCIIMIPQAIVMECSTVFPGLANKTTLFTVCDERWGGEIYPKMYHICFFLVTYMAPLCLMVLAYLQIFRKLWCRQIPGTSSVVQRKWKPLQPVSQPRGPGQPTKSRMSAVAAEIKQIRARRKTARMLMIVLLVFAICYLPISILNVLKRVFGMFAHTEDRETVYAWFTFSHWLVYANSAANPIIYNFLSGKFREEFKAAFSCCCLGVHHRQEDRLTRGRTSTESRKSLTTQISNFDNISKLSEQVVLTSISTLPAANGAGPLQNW
Method: (§1) Phosphate-buffered saline (PBS) was used as a vehicle control.
(§2) Cells were seeded in 6-well plates at a density of approximately 630,000 cells/well (HEK293FT) or approximately 150,000 cells/well (COS-7) and maintained at 37° C., 5% CO2 in Complete Media (DMEM containing 0.3 mg/ml glutamine, 100 IU/ml penicillin and 100 μg/ml streptomycin (Gibco)) supplemented with 10% fetal calf serum (FCS; Gibco). Transient transfections were carried out 24 h after seeding using GeneJuice (Novagen) or Metafectene (Biontex) according to manufacturer instructions. 24 h post-transfection, cells were washed with PBS, detached using 0.05% trypsin/0.53 mM EDTA, resuspended in HEPES-buffered phenol red free Complete Media containing 5% FCS and added to a poly-L-lysine-coated white microplate (Nunc). 48 h post-transfection, eBRET assays were carried out following pre-incubation of cells with EnduRen™ (Promega) at a final concentration of 30-40 μM, at 37° C., 5% CO2 for 2 h. For original BRET studies, the HEPES-buffered phenol red free Complete Media was replaced with PBS and coelenterazine h (Molecular Probes) added to a final concentration of 5 μM immediately prior to commencing the assay. […] Filtered light emissions were sequentially measured for 3-5 s in each of the ‘donor wavelength window’ (400-475 nm) and ‘acceptor wavelength window’ (>500 nm for EGFP or 520-540 nm for EYFP, Topaz (TYFP) or Venus). […]

[2] = tested on: TRHR335 (truncated TRHR) with OxR2; experiment: eBRET/BRET between TRHR335/Rluc and labelled beta-arrestin with OxR2 as IG3
Method: Cells were seeded in 6-well plates at a density of approximately 630,000 cells/well (HEK293FT) or approximately 150,000 cells/well (COS-7) and maintained at 37° C., 5% CO2 in Complete Media (DMEM containing 0.3 mg/ml glutamine, 100 IU/ml penicillin and 100 μg/ml streptomycin (Gibco)) supplemented with 10% fetal calf serum (FCS; Gibco). Transient transfections were carried out 24 h after seeding using GeneJuice (Novagen) or Metafectene (Biontex) according to manufacturer instructions. 24 h post-transfection, cells were washed with PBS, detached using 0.05% trypsin/0.53 mM EDTA, resuspended in HEPES-buffered phenol red free Complete Media containing 5% FCS and added to a poly-L-lysine-coated white microplate (Nunc). 48 h post-transfection, eBRET assays were carried out following pre-incubation of cells with EnduRen™ (Promega) at a final concentration of 30-40 μM, at 37° C., 5% CO2 for 2 h. For original BRET studies, the HEPES-buffered phenol red free Complete Media was replaced with PBS and coelenterazine h (Molecular Probes) added to a final concentration of 5 μM immediately prior to commencing the assay. […] Filtered light emissions were sequentially measured for 3-5 s in each of the ‘donor wavelength window’ (400-475 nm) and ‘acceptor wavelength window’ (>500 nm for EGFP or 520-540 nm for EYFP, Topaz (TYFP) or Venus). The BRET signal observed between interacting proteins is normalized by subtracting the background BRET ratio.

OxR2 with HA-TRHR = molecular target: T2, OxR2 with HA-TRHR (Homo sapiens, UniProt O43614+P34981); experiment: eBRET between OxR2/Rluc8 and barr2/Venus with HA-TRHR as IG3
T2 construct: expressed in transfected cells; host or cells: HEK293
T2 sequence (O43614 1-444): T1 sequence (O43614 1-444)
T2 sequence (P34981 1-398): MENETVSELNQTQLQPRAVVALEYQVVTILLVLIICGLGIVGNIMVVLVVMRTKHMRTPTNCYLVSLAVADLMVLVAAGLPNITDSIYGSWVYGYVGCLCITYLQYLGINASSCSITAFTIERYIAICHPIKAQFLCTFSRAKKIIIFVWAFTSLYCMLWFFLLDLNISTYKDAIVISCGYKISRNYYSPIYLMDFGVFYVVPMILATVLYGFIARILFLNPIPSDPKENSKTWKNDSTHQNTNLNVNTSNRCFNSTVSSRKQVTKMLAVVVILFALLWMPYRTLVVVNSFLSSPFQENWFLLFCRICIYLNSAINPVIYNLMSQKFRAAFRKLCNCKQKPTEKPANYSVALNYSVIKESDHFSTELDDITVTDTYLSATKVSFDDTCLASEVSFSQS
Method: as §1, §2

[3] = molecular target: bradykinin B2 receptor (B2R) with HA-AT1R (Homo sapiens, UniProt P30556); experiment: eBRET between B2R/Rluc8 and barr2/Venus with HA-AT1R as IG3
bradykinin B2 receptor (B2R) with HA-AT1R, sequence (P30411 whole entry): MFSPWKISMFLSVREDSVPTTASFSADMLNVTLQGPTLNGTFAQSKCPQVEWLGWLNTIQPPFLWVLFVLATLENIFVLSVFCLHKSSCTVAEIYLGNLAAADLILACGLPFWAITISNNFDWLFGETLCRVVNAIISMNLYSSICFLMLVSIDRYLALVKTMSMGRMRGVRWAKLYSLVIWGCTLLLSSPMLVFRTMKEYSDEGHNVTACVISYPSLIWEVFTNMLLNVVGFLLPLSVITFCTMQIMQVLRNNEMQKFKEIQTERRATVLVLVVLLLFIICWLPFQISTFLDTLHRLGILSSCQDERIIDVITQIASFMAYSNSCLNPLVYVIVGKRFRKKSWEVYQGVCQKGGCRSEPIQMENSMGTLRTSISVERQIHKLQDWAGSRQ
bradykinin B2 receptor (B2R) with HA-AT1R, sequence (P30556 whole entry): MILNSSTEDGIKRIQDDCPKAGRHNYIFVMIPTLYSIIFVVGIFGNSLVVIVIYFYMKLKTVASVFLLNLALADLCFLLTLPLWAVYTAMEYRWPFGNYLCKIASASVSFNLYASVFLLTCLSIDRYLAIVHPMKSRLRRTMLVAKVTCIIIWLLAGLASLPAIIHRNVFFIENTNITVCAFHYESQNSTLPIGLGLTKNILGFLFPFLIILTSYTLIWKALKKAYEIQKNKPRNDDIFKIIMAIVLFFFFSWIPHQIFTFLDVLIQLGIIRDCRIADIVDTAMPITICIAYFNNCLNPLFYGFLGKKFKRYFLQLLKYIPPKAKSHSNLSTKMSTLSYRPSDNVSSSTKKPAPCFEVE
Method: Phosphate-buffered saline (PBS) was used as a vehicle control. Data presented as ligand-induced BRET ratio.
BRET measurements at 37 C were carried out on HEK293 cells transiently co-expressing B2R/Rluc8, barr2/Venus and HA-AT1R treated with increasing doses of Angiotensin II (AngII). A sigmoidal dose response curve was plotted using Prism (GraphPad) allowing for variable slope.
Cells were seeded in 6-well plates at a density of approximately 630,000 cells/well (HEK293FT) or approximately 150,000 cells/well (COS-7) and maintained at 37° C., 5% CO2 in Complete Media (DMEM containing 0.3 mg/ml glutamine, 100 IU/ml penicillin and 100 μg/ml streptomycin (Gibco)) supplemented with 10% fetal calf serum (FCS; Gibco). Transient transfections were carried out 24 h after seeding using GeneJuice (Novagen) or Metafectene (Biontex) according to manufacturer instructions. […] BRET measurements were taken at 37° C. using the Victor Light plate reader with Wallac 1420 software (Perkin-Elmer). Filtered light emissions were sequentially measured for 3-5 s in each of the ‘donor wavelength window’ (400-475 nm) and ‘acceptor wavelength window’ (>500 nm for EGFP or 520-540 nm for EYFP, Topaz (TYFP) or Venus). […]

| ligand-induced eBRET signal (OxR2) | ligand-induced eBRET signal (OxR2 with HA-TRHR) | eBRET signal (ligand-induced BRET ratio) [3] | Compound | time to eBRET signal peak ([1]; HEK293, TRHR/Rluc + barr2/Venus + pcDNA3, ligand 10^−6M) | eBRET signal peak ([1]; HEK293, TRHR/Rluc + barr2/Venus + pcDNA3, ligand 10^−6M, 37 C) | eBRET signal ([1]; TRHR/Rluc + EGFP/barr (barr1, barr2 or barr1R169E), no OxR2) | dose-response Hill slope ([1]; TRHR/Rluc + barr2/Venus + pcDNA3, FIG. 10) | eBRET signal ([2]; TRHR335/Rluc + EGFP/barr1 + OxR2) | BRET signal, dose response curves ([2]; TRHR335/Rluc + barr2/Venus + OxR2) |
| --- | --- | --- | --- | --- | --- | --- | --- | --- | --- |
| No ligand-induced eBRET signal | 0.05 |  | NC(=O)[C@@H]1CCCN1C(=O)[C@H](Cc1cnc[nH]1)NC(=O)[C@@H]1CCC(=O)N1 [TRH, pGlu-His-Pro-NH2] | Within the first minute | greater than 0.17 | rapid stimulation of the eBRET signal; also recorded: rapid increase in eBRET signal | approximately 1 | no eBRET signal above baseline | does not result in a BRET signal |
|  |  | robust increase in the eBRET signal | AngII |  |  |  |  |  |  |
